According to ChEMBL document CHEMBL5131574, “Discovery of Inhibitors of DNA Methyltransferase 2, an Epitranscriptomic Modulator and Potential Target for Cancer Treatment” (J Med Chem, 2022):

Legend:
[1] = target: T1, tRNA (cytosine(72)-C(5))-methyltransferase NSUN6 (Homo sapiens) (UniProt Q8TEA1); test: Inhibition of full length human NSUN6 expressed in Escherichia coli Rosetta2(DE3)pLysS at 100 uM measured at 20 mins by liquid scintillation counting analysis
T1 sequence (whole entry): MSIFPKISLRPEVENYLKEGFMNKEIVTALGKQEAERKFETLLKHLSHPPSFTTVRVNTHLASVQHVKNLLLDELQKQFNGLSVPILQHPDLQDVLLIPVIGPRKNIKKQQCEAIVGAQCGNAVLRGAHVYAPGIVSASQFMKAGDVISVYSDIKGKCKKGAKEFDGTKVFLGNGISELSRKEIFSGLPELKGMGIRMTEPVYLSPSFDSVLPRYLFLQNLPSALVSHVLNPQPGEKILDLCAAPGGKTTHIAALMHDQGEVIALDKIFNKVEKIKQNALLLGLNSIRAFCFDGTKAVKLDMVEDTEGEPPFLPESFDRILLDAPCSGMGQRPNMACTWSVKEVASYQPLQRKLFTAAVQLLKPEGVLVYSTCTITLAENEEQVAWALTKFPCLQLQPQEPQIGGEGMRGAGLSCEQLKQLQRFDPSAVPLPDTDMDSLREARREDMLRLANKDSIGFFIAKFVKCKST

[2] = target: T2, Histone-lysine N-methyltransferase EHMT2 (Homo sapiens) (UniProt Q96KQ7); test: Inhibition of recombinant human EHMT2 G9a expressed in Escherichia coli Rosetta2(DE3)pLysS at 100 uM using histone H3 as substrate measured at 120 mins by liquid scintillation counting analysis
T2 sequence (whole entry): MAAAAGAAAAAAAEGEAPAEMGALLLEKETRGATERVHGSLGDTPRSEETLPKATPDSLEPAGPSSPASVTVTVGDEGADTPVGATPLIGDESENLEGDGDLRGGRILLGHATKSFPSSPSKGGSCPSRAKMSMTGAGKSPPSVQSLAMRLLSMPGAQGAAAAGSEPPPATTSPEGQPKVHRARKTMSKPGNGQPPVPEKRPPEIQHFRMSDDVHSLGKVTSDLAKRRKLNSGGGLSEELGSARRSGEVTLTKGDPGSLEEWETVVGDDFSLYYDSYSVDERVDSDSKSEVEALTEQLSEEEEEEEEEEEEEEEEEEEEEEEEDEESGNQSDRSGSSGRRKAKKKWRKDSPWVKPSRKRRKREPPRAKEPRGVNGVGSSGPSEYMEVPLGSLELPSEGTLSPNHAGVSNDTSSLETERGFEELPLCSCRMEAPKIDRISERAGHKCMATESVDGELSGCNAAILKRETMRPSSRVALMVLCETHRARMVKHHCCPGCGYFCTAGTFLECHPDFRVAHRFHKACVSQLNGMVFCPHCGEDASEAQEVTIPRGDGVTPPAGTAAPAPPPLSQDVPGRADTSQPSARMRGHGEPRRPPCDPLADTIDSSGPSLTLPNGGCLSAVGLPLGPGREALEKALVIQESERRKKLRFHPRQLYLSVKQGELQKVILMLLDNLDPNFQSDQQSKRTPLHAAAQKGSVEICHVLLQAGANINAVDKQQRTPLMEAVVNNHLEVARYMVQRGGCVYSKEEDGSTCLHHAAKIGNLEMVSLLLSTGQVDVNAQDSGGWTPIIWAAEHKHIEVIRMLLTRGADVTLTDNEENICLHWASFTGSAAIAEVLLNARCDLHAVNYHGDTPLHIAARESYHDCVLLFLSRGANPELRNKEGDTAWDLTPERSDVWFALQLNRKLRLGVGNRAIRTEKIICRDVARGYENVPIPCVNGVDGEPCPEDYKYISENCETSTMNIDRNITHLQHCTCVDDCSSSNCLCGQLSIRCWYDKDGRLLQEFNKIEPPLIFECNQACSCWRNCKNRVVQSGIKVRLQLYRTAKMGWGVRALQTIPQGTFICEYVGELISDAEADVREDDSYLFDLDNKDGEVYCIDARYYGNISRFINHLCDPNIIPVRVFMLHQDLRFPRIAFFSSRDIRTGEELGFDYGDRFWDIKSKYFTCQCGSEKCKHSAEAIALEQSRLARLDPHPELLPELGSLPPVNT

[3] = target: DNA (cytosine-5)-methyltransferase 3A (Homo sapiens) (UniProt Q9Y6K1); test: Inhibition of recombinant human DNMT3A-3L expressed in Escherichia coli Rosetta2(DE3)pLysS at 100 uM using Poly(dI-dC)-Poly(dI-dC) as substrate measured at 150 mins by liquid scintillation counting analysis
Sequence of DNA (cytosine-5)-methyltransferase 3A (Homo sapiens) (Q9Y6K1 whole entry, looked up): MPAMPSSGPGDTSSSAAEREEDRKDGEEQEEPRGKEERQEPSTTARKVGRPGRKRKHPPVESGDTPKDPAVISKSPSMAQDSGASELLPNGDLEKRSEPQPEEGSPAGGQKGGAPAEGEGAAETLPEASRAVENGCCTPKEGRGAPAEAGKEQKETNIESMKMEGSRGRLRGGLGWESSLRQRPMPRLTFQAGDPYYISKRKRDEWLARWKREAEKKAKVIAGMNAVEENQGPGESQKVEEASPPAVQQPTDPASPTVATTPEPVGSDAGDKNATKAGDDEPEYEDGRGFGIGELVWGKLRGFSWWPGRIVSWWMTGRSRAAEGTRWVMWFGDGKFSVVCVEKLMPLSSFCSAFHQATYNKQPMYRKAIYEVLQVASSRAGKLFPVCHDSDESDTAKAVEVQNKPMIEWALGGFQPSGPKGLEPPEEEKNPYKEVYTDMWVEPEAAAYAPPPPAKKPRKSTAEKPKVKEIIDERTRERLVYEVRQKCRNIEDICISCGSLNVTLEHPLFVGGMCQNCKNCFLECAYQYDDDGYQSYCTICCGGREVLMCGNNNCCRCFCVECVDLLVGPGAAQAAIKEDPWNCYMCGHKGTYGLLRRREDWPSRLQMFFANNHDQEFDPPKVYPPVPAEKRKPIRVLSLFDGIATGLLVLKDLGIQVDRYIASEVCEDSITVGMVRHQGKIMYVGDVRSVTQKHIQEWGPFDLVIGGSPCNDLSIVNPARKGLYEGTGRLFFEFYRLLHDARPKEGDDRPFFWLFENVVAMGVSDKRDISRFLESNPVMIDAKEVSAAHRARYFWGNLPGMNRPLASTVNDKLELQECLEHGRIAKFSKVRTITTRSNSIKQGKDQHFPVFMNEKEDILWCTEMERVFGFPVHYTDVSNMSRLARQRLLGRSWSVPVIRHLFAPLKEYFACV

[4] = Permeability of the compound in human Caco-2 cells assessed as compound remaining by measuring ester form of the acceptor compartment incubated for 24 hrs by LC/MS analysis; assay type: ADME, cell-based; conditions: caco-2, 24 h
[5] = Permeability of the compound in human Caco-2 cells assessed as compound remaining by measuring ester form of the donor compartment incubated for 24 hrs by LC/MS analysis; assay type: ADME, cell-based; conditions: read-out: Activity
[6] = Cytotoxicity against human HEK293 cells assessed as cell viability at 100 uM measured after 24 hrs by MTT assay; assay type: toxicity, cell-based
[7] = Stability of the compound in TRIS buffer at 7.4 pH assessed as hydrolysis of ethyl ester at 100 uM incubated for 24 hrs by LC-MS analysis; assay type: physicochemical; conditions: pH 7.4, read-out: Drug degradation
[8] = Permeability of the compound in human Caco-2 cells assessed as compound remaining by measuring acid form of the donor compartment incubated for 24 hrs by LC/MS analysis; assay type: ADME, cell-based; conditions: caco-2, 24 h
[9] = target: T3, tRNA (cytosine(38)-C(5))-methyltransferase (Homo sapiens) (UniProt O14717); test: Binding affinity to full length human N-terminal his6-tagged DNMT2 expressed in Escherichia coli Rosetta2(DE3)pLysS assessed as gibbs free energy change at 100 uM by isothermal titration calorimetry assay
T3 sequence (whole entry): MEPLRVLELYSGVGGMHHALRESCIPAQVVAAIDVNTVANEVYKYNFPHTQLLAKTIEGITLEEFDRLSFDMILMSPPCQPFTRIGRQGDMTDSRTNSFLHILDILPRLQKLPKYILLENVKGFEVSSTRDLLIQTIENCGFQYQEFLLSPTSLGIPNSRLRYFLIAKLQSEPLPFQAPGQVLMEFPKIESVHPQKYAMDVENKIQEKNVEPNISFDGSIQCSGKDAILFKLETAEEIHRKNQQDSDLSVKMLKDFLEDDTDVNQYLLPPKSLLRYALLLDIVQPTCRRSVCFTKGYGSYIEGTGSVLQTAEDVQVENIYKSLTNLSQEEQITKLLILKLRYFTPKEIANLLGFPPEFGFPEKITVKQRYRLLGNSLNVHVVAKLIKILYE

[10] = target: T4, tRNA (cytosine(38)-C(5))-methyltransferase (Homo sapiens, UniProt O14717); test: Binding affinity to full length human N-terminal his6-tagged DNMT2 expressed in Escherichia coli Rosetta2(DE3)pLysS assessed as dissociation constant at 100 uM by isothermal titration calorimetry assay
T4 sequence (O14717 whole entry): T3 sequence (whole entry)

[11] = target: T3, tRNA (cytosine(38)-C(5))-methyltransferase (Homo sapiens); test: Inhibition of full length human N-terminal his6-tagged DNMT2 expressed in Escherichia coli Rosetta2(DE3)pLysS at 100 uM by liquid scintillation counting analysis
[12] = target: T4, tRNA (cytosine(38)-C(5))-methyltransferase; test: Inhibition of full length human N-terminal his6-tagged DNMT2 expressed in Escherichia coli Rosetta2(DE3)pLysS by […] assay
[13] = target: RNA cytosine C(5)-methyltransferase NSUN2 (Homo sapiens) (UniProt Q08J23); test: Inhibition of full length recombinant human NSUN2 expressed in Escherichia coli Rosetta2(DE3)pLysS at 100 uM measured at 20 mins by liquid scintillation counting analysis
Sequence of RNA cytosine C(5)-methyltransferase NSUN2 (Homo sapiens) (Q08J23 whole entry): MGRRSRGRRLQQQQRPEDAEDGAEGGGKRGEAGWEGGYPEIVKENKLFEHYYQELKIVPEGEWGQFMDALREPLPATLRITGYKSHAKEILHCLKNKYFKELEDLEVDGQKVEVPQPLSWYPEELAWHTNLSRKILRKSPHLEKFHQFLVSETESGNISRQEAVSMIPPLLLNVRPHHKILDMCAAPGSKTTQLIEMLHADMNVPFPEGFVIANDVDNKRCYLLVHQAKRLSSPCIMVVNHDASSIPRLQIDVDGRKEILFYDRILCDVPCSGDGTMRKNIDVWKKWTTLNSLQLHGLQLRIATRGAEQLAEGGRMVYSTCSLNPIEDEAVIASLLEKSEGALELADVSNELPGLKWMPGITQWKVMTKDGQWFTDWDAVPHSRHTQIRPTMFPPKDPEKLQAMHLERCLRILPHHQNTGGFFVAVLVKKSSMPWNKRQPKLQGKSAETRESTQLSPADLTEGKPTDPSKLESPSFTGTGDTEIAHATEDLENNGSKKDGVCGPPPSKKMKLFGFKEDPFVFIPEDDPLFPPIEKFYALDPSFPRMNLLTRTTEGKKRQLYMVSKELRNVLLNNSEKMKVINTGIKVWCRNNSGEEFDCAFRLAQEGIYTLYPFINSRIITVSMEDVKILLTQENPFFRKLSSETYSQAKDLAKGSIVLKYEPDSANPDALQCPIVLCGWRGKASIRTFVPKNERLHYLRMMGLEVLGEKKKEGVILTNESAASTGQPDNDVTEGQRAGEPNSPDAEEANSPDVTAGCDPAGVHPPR

[14] = target: T3, tRNA (cytosine(38)-C(5))-methyltransferase (Homo sapiens); test: Binding affinity to full length human N-terminal his6-tagged DNMT2 expressed in Escherichia coli Rosetta2(DE3)pLysS assessed as change in entropy at 100 uM by isothermal titration calorimetry assay
[15] = target: T3, tRNA (cytosine(38)-C(5))-methyltransferase (Homo sapiens); test: Binding affinity to full length human N-terminal his6-tagged DNMT2 expressed in Escherichia coli Rosetta2(DE3)pLysS assessed as change in enthalpy change at 100 uM by isothermal titration calorimetry assay
[16] = target: T3, tRNA (cytosine(38)-C(5))-methyltransferase (Homo sapiens); test: Inhibition of DNMT2-mediated tRNA methylation in human HEK293 cells assessed as reduction in m5C at C38 of tRNA by measuring m5C level at 100 uM incubated for 24 hrs by bisulfite sequencing analysis; assay type: cell-based
[17] = Selectivity ratio of Kd for binding affinity to full length human N-terminal his6-tagged DNMT2 expressed in Escherichia coli Rosetta2(DE3)pLysS assessed as dissociation constant to IC50 for inhibition of full length human N-terminal his6-tagged DNMT2 expressed in Escherichia coli Rosetta2(DE3)pLysS

inhibition [1] [%] | inhibition [2] [%] | inhibition [3] [%] | Activity [4] [%] | remaining at 24 h [5] [%] | degraded at 24 h, 100 µM [7] [%] | Activity [8] | deltaG [9] [kcal/mol] | Kd [10] [µM] | inhibition [11] [%] | IC50 [12] [µM] | inhibition [13] [%] | -TdeltaS [14] [kcal/mol] | deltaH [15] [kcal/mol] | inhibition [16] [%] | Selectivity ratio [17] | SMILES | CC50 at 24 h [6] [µM]
22.7 | 32 | 95.3 | – | – | – | – | – | – | – | – | – | – | – | – | – | CCC#CCN(CC[C@H](N)C(=O)O)C[C@H]1O[C@@H](n2cnc3c(N)ncnc32)[C@H](O)[C@@H]1O | –
– | – | – | 2 | 20 | 60 | <= 78% | – | – | – | – | – | – | – | – | – | C#CC(C)N(CC[C@H](N)C(=O)OCC)C[C@H]1O[C@@H](n2cnc3c(N)ncnc32)[C@H](O)[C@@H]1O (some centres undefined) | > 500
99.6 | 94.3 | 96.7 | – | – | – | – | -6.64 | 13.6 | 85.7 | 15.8 | 97.3 | 6.57 | -13.2 | – | – | Nc1ncnc2c1ncn2[C@@H]1O[C@H](CSCC[C@H](N)C(=O)O)[C@@H](O)[C@H]1O [S-ADENOSYLHOMOCYSTEINE] | –
– | 71 | 84.2 | 0.6 | – | – | – | – | – | – | – | – | – | – | – | – | C#CC(C)N(CC[C@H](N)C(=O)O)C[C@H]1O[C@@H](n2cnc3c(N)ncnc32)[C@H](O)[C@@H]1O (some centres undefined) | > 500
70.2 | 43 | 98 | – | – | – | – | -7 | 7.5 | 83.5 | 13.2 | 77.1 | -1.15 | -5.86 | 94 | 2 | Nc1ncnc2c1ncn2[C@@H]1O[C@H](C[C@@H](N)CC[C@H](N)C(=O)O)[C@@H](O)[C@H]1O [SINEFUNGIN] | > 500
25.9 | 22.8 | 97.6 | – | – | – | – | -6.74 | 11.4 | 72.2 | 77.1 | – | 2.29 | -9.03 | – | 7 | C#CCN(CC[C@H](N)C(=O)O)C[C@H]1O[C@@H](n2cnc3c(N)ncnc32)[C@H](O)[C@@H]1O | –
12.9 | 37.6 | 93.9 | – | – | – | – | – | – | – | – | – | – | – | – | – | CC#CCN(CC[C@H](N)C(=O)O)C[C@H]1O[C@@H](n2cnc3c(N)ncnc32)[C@H](O)[C@@H]1O | –
– | – | – | – | – | – | – | – | – | – | – | – | – | – | – | – | CCCN(CC[C@H](N)C(=O)O)C[C@H]1O[C@@H](n2cnc3c(N)ncnc32)[C@H](O)[C@@H]1O | > 500
